Source: patent US20140005145A1, “COMBINATION BREAST CANCER THERAPY WITH HSP90 INHIBITORY COMPOUNDS” (SYNTA PHARMACEUTICALS CORP., priority 2010, published 2014)

Assays:
[1] = test system: MCF-7 human breast cancer tumor cells; assay: MCF-7 human breast tumor xenograft in nude mice, Compound 1 with or without tamoxifen; format: in vivo
Experimental: Tumor-bearing animals (5 mice/group) were i.v. injected 1 time per week for a total of 3 doses with 10 mL/kg of 10/18 DRD vehicle with or without 180 mg/kg Compound 1. Animals were also implanted with slow release tamoxifen pellets (Tam). In the combination treatment group, animals were dosed with Compound 1 four days after tamoxifen pellets were implanted. Each group that was not dosed with Compound 1 was instead dosed with 10/18 DRD vehicle as a mock treatment. Average tumor volumes for each group were determined every 3-5 days.
The human breast cancer cell line, MCF-7, was obtained from the American Type Culture Collection (Manassas, Va., USA) and grown according to the ATCC guidelines. MCF-7 xenografts were established in twenty nude mice (Charles River Laboratories, Wilmington, Mass., USA) supplemented with slow release estrogen pellets as previously described, using 5×10^6 cells (1), and randomized into treatment groups. Ten days after cells were inoculated half of the animals were supplemented with slow release tamoxifen pellets.
To formulate Compound 1 in 10/18 DRD, stock solutions of the test article were prepared by dissolving the appropriate amounts of the compound in dimethyl sulfoxide (DMSO) by sonication in an ultrasonic water bath. Stock solutions were prepared weekly, stored at −20° C. and diluted fresh each day for dosing. A solution of 20% Cremophor RH40 (polyoxyl 40 hydrogenated castor oil; BASF Corp., Aktiengesellschaft, Ludwigshafen, Germany) in 5% dextrose in water (D5W; Abbott Laboratories, North Chicago, Ill., USA) was also prepared by first heating 100% Cremophor RH40 at 50-60° C. until liquefied and clear, diluting 1:5 with 100% D5W, reheating again until clear and then mixing well. This solution was stored at room temperature for up to 3 months prior to use. To prepare 10/18 DRD formulations for daily dosing, DMSO stock solutions were diluted 1:10 with 20% Cremophor RH40. The final 10/18 DRD formulation for dosing contained 10% DMSO, 18% Cremophor RH40, 3.6% dextrose, 68.4% water and the appropriate amount of test article. Animals were intravenously (i.v.) injected with this formulation at 10 mL per kg body weight on one day each week for a total of 3 doses, four days after tamoxifen pellets were implanted.
The ability of Compound 1 to enhance the in vivo anti-tumor activity of tamoxifen was investigated.

[2] = test system: MCF-7 breast cancer cells; assay: Emergence of tamoxifen resistant clones in MCF-7 cell culture; format: cell-based, human; conditions: tamoxifen combined with compound 1, MCF-7 cell culture

SMILES	adverse finding in dosed animals ([1]; Compound 1 alone cohort, 180 mg/kg i.v., one of the animals, following the first dose, removed from the study)	in vivo growth rate of MCF-7 cells (tumor volume) ([1]; Compound 1 alone, 180 mg/kg i.v. 1 time per week, 3 doses, nude mice)	effect in combination with tamoxifen in the treatment of breast cancer ([1]; in combination with tamoxifen, preclinical model)	tumor response (tumor volume) to the combination ([1]; slow release tamoxifen combined with 180 mg/kg Compound 1 i.v. 1 time per week, 3 doses, nude mice)	emergence of tamoxifen resistant clones [2]	in vivo growth rate of MCF-7 cells (tumor volume) ([1]; slow release tamoxifen pellets alone (10/18 DRD vehicle as mock treatment), nude mice)
CC(C)c1cc(-c2nnc(O)n2-c2ccc3c(ccn3C)c2)c(O)cc1O [Compound 1, 3-(2,4-dihydroxy-5-isopropyl-phenyl)-4-(1-methyl-indol-5-yl)-5-hydroxy-[1,2,4]triazole]	signs of necrosis in the tail	moderate reductions in the growth rate	surprising synergistic effect	significant tumor regression	dramatically limited the emergence of tamoxifen resistant clones	–
CC/C(=C(\c1ccccc1)c1ccc(OCCN(C)C)cc1)c1ccccc1 [tamoxifen, reference compound]	–	–	–	–	–	moderate reductions in the growth rate
